From US20160002204A1 (Board of Regents, The University of Texas System, priority 2014, published 2016) come the findings set out here.

pEC50, pIC50: −log10 of the molar value.

Assay [1] deals with T1, GLS1 (purified recombinant human GAC) (Homo sapiens, UniProt O94925).
T1 sequence (O94925 55-598 isoform O94925-3 limits assumed): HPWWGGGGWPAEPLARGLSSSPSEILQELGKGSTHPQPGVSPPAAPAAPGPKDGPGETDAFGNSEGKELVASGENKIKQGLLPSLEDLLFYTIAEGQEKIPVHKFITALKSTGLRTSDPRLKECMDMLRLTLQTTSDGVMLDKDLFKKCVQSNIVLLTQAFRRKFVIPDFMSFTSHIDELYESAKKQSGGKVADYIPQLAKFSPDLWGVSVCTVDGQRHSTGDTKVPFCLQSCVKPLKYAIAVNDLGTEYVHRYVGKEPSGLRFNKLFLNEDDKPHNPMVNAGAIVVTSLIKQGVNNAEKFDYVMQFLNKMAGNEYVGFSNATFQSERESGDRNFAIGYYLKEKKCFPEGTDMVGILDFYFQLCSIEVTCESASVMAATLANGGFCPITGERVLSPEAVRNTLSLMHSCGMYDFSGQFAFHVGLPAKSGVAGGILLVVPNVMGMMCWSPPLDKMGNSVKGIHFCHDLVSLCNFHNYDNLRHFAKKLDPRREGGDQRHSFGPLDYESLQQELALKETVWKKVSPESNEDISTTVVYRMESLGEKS
Briefly: GLS1 enzymatic activity assay (dual-coupled, Amplex UltraRed/resorufin). In kind it is biochemical. The gist of the method:
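GAC activity measured by coupling glutamate to glutamate oxidase and HRP, generating resorufin from Amplex UltraRed. Enzyme (2 nM) preincubated with 50 mM potassium phosphate 10 min at room temperature, then inhibitor 10 min; 1 mM glutamine substrate, 1% DMSO. Fluorescence 530/590 nm, kinetic or 20-min endpoint; IC50 from four-parameter logistic fit.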

In another assay the test system is A549 cells. The experiment in a line: A549 proliferation (viability) assay, Cell Titer Fluor, 72 hours. In kind it is cell-based. Conditions: Homo sapiens. The gist of the method:
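Fluorescence read-out (Cell Titer Fluor, 30 min at 37 °C after reagent) after 72 h compound exposure of A549 cells; EC50 by four-parameter logistic curve fit. Cells: 1000/well, RPMI 1640 + 10% dialyzed FBS, 0.5% DMSO final.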

By pIC50 is commonly meant the IC50 on a negative log10 scale, so that one unit is a factor of ten. Broadly, the pEC50 is the EC50 on a negative log10 scale, so that one unit is a factor of ten. Low values mean a large EC50, high ones a small EC50. In the case of `O=C(Cc1cccc(OC(F)(F)F)c1)Nc1ccn(CCCCn2cc(C(=O)NCc3cccc(OC(F)(F)F)c3)nn2)c(=O)c1` [Example 52, 1-[4-(2-oxo-4-{2-[3-(trifluoromethoxy)phenyl]acetamido}-1,2-dihydropyridin-1-yl)butyl]-N-{[3-(trifluoromethoxy)phenyl]methyl}-1H-1,2,3-triazole-4-carboxamide], in assay [1], the pIC50 was over 7.00. In the assay with A549 cells, the pEC50 is 6.30 to 7.00.
For `O=C(Nc1ccn(CCC(F)Cn2cc(C(=O)NCc3cc(OC(F)(F)F)ccc3F)nn2)c(=O)c1F)C(=O)N1CCC[C@@H](C(F)(F)F)C1` (stereo partly drawn) [Example 434, 1-[2-fluoro-4-(3-fluoro-2-oxo-4-{2-oxo-2-[(3R)-3-(trifluoromethyl)piperidin-1-yl]acetamido)-1,2-dihydropyridin-1-yl)butyl]-N-{[2-fluoro-5-(trifluoromethoxy)phenyl]methyl}-1H-1,2,3-triazole-4-carboxamide] the same measures were over 7.00 and over 7.00.
For `O=C(Nc1ccn(CCC(F)Cn2cc(C(=O)NCc3cccc(OC(F)(F)F)c3)nn2)c(=O)n1)NC1CCC1` (centres unmarked) [Example 499, 1-(4-{4-[(cyclobutylcarbamoyl)amino]-2-oxo-1,2-dihydropyrimidin-1-yl}-2-fluorobutyl)-N-{[3-(trifluoromethoxy)phenyl]methyl}-1H-1,2,3-triazole-4-carboxamide] the same measures were 5.30 to 6.30 and under 5.30.
For `COCC1CCN(CC(=O)Nc2ccn(CCC(F)Cn3cc(C(=O)NCc4cccc(OC(F)(F)F)c4)nn3)c(=O)c2)CC1` (centres unmarked) [Example 272, 1-[2-fluoro-4-(4-{2-[4-(methoxymethyl)piperidin-1-yl]acetamido}-2-oxo-1,2-dihydropyridin-1-yl)butyl]-N-{[3-(trifluoromethoxy)phenyl]methyl}-1H-1,2,3-triazole-4-carboxamide] the same measures were over 7.00 and 6.30 to 7.00.
In the case of `O=C(Cc1ccc(F)cc1F)Nc1ccn(CCC(F)Cn2cc(C(=O)NCc3cccc(OC(F)(F)F)c3)nn2)c(=O)c1F` (centres unmarked) [Example 334, 1-(4-{4-[2-(2,4-difluorophenyl)acetamido]-3-fluoro-2-oxo-1,2-dihydropyridin-1-yl}-2-fluorobutyl)-N-{[3-(trifluoromethoxy)phenyl]methyl}-1H-1,2,3-triazole-4-carboxamide], the pIC50 in assay [1] was over 7.00. Besides, the pEC50 in the assay with A549 cells was over 7.00.
In the case of `O=C(CC1CCCCO1)Nc1ccn(CCCCn2cc(C(=O)NCc3cccc(OC(F)(F)F)c3)nn2)c(=O)c1` (centres unmarked) [Example 206, 1-(4-{4-[2-(oxan-2-yl)acetamido]-2-oxo-1,2-dihydropyridin-1-yl}butyl)-N-{[3-(trifluoromethoxy)phenyl]methyl}-1H-1,2,3-triazole-4-carboxamide], the pIC50 in assay [1] is over 7.00. Besides, in the assay on A549 cells, the pEC50 is over 7.00.
Take `CC(C)(C)OC(=O)Nc1ccn(CCC(F)Cn2cc(C(=O)NCc3cc(C(F)(F)F)ccn3)nn2)c(=O)c1F` (centres unmarked) [Example 320, tert-butyl N-(3-fluoro-1-{3-fluoro-4-[4-({[4-(trifluoromethyl)pyridin-2-yl]methyl}carbamoyl)-1H-1,2,3-triazol-1-yl]butyl}-2-oxo-1,2-dihydropyridin-4-yl)carbamate]: the pIC50 in assay [1] is 6.30 to 7.00. Further, in the assay with A549 cells, the pEC50 is 6.30 to 7.00.
In the case of `CC(C)(C)OC(=O)N[C@@H]1CCC[C@@H](C(=O)Nc2ccn(CCC(F)Cn3cc(C(=O)NCc4cccc(OC(F)(F)F)c4)nn3)c(=O)c2)C1` (stereo partly drawn) [Example 249, tert-butyl N-[(1R,3R)-3-[(1-{3-fluoro-4-[4-({[3-(trifluoromethoxy)phenyl]methyl}carbamoyl)-1H-1,2,3-triazol-1-yl]butyl}-2-oxo-1,2-dihydropyridin-4-yl)carbamoyl]cyclohexyl]carbamate], in assay [1], the pIC50 was over 7.00. The compound also gave a pEC50 in the assay on A549 cells of over 7.00.
In the case of `CC1(C)CN(CC(=O)Nc2ccn(CCC(F)Cn3cc(C(=O)NCc4cccc(OC(F)(F)F)c4)nn3)c(=O)c2)CCO1` (centres unmarked) [Example 276, 1-(4-{4-[2-(2,2-dimethylmorpholin-4-yl)acetamido]-2-oxo-1,2-dihydropyridin-1-yl}-2-fluorobutyl)-N-{[3-(trifluoromethoxy)phenyl]methyl}-1H-1,2,3-triazole-4-carboxamide], in assay [1], the pIC50 is over 7.00. The pEC50 in the assay on A549 cells is 6.30 to 7.00.
For `Cc1ccc(CNC(=O)c2cn(CC(F)CCn3ccc(NC(=O)Cc4ccccc4)cc3=O)nn2)cn1` (centres unmarked) [Example 150, 1-{2-fluoro-4-[2-oxo-4-(2-phenylacetamido)-1,2-dihydropyridin-1-yl]butyl}-N-[(6-methylpyridin-3-yl)methyl]-1H-1,2,3-triazole-4-carboxamide] the same measures were 6.30 to 7.00 and under 5.30.
For `O=C(Nc1ccn(CCC(F)Cn2cc(C(=O)NCc3cccc(OC(F)(F)F)c3)nn2)c(=O)n1)OCc1ccccc1` (centres unmarked) [Example 470, benzyl N-(1-{3-fluoro-4-[4-({[3-(trifluoromethoxy)phenyl]methyl}carbamoyl)-1H-1,2,3-triazol-1-yl]butyl}-2-oxo-1,2-dihydropyrimidin-4-yl)carbamate] the same measures were over 7.00 and over 7.00.
On to `O=C(NCc1cccc(OC(F)(F)F)c1)c1cn(CC(F)CCn2ccc(COc3ccc(F)cc3F)cc2=O)nn1` (centres unmarked) [Example 478, 1-{4-[4-(2,4-difluorophenoxymethyl)-2-oxo-1,2-dihydropyridin-1-yl]-2-fluorobutyl}-N-{[3-(trifluoromethoxy)phenyl]methyl}-1H-1,2,3-triazole-4-carboxamide], for which, in assay [1], the pIC50 was over 7.00. The same compound had a pEC50 in the assay on A549 cells of 6.30 to 7.00.
For `Cc1cccc(CNC(=O)c2cn(CC(F)CCn3ccc(NC(=O)Cc4ccccc4)cc3=O)nn2)n1` (centres unmarked) [Example 165, 1-{2-fluoro-4-[2-oxo-4-(2-phenylacetamido)-1,2-dihydropyridin-1-yl]butyl}-N-[(6-methylpyridin-2-yl)methyl]-1H-1,2,3-triazole-4-carboxamide] the same measures were over 7.00 and 5.30 to 6.30.
The like results for `O=C(CC1CCCCC1)Nc1ccn(CCCCn2cc(C(=O)NCc3cccc(OC(F)(F)F)c3)nn2)c(=O)c1` [Example 45, 1-{4-[4-(2-cyclohexylacetamido)-2-oxo-1,2-dihydropyridin-1-yl]butyl}-N-{[3-(trifluoromethoxy)phenyl]methyl}-1H-1,2,3-triazole-4-carboxamide] were, in that order, over 7.00 and over 7.00.
For the compound `Nc1ccn(CCC(F)Cn2cc(C(=O)NCc3cccc(OC(F)(F)F)c3)nn2)c(=O)c1F` (centres unmarked) [Example 282, 1-[4-(4-amino-3-fluoro-2-oxo-1,2-dihydropyridin-1-yl)-2-fluorobutyl]-N-{[3-(trifluoromethoxy)phenyl]methyl}-1H-1,2,3-triazole-4-carboxamide], in assay [1], the pIC50 was 5.30 to 6.30. Further, in the assay with A549 cells, the pEC50 was under 5.30.
For `O=C(NCc1cccc(OC(F)(F)F)c1)c1cn(CC(F)CCn2ccc(Cn3ccccc3=O)cc2=O)nn1` (centres unmarked) [Example 479, 1-(2-fluoro-4-{2-oxo-4-[(2-oxo-1,2-dihydropyridin-1-yl)methyl]-1,2-dihydropyridin-1-yl}butyl)-N-{[3-(trifluoromethoxy)phenyl]methyl}-1H-1,2,3-triazole-4-carboxamide] the same measures were 5.30 to 6.30 and 5.30 to 6.30.
